# Laboratory results taken from patent publication US9757363B2, “SNS-595 and methods of using the same” (Sunesis Pharmaceuticals, Inc., priority 2004, dated 2017).
# Where two headings read alike, the source gives them in different places.
# Assay: Pharmacokinetics of SNS-595 in cancer patients
# Format: in vivo, human
# Conditions: for AUC(0-t) / AUC(0-inf) / MRT inf / Cmax: human, intravenous
# Experimental: SNS-595 was administered to enrolled patients for up to six cycles. A cycle is defined as a three-week period, with SNS-595 administered on the first day of each cycle (day 0), followed by at least 21 days of observation. SNS-595 was administered to cohorts of at least 3 patients and dose escalation occurred by sequential cohort.
# [1] = 48 mg/m2, plasma, dose 48 mg/m^2
# [2] = 60 mg/m2, plasma, dose 60 mg/m^2
smiles,measurement,setting,value
"CN[C@H]1CN(c2ccc3c(=O)c(C(=O)O)cn(-c4nccs4)c3n2)C[C@@H]1OC [SNS-595, (+)-1,4-dihydro-7-[(3S,4S)-3-methoxy-4-(methylamino)-1-pyrrolidinyl]-4-oxo-1-(2-thiazoyl)-1,8-naphthyridine-3-carboxylic acid]",relation of dose to AUC^oo,dose escalation by sequential cohort,linear
same,AUC(0-t),"3 mg/m2, plasma, dose 3 mg/m^2",750 ng·h/mL
same,AUC(0-t),"6 mg/m2, plasma, dose 6 mg/m^2",2400 ng·h/mL
same,AUC(0-inf),"6 mg/m2, plasma, dose 6 mg/m^2, read-out: AUCINF_obs",2990 ng·h/mL
same,MRT inf,"6 mg/m2, plasma, dose 6 mg/m^2, read-out: MRTINF_obs",29.1 h
same,AUC(0-t),"12 mg/m2, plasma, dose 12 mg/m^2",5400 ng·h/mL
same,MRT inf,"12 mg/m2, plasma, dose 12 mg/m^2, read-out: MRTINF_obs",23.7 h
same,AUC(0-t),"24 mg/m2, plasma, dose 24 mg/m^2",11100 ng·h/mL
same,MRT inf,"24 mg/m2, plasma, dose 24 mg/m^2, read-out: MRTINF_obs",21.6 h
same,AUC(0-t),[1],21100 ng·h/mL
same,Cmax,[1],2870 ng/mL
same,AUC(0-inf),"48 mg/m2, plasma, dose 48 mg/m^2, read-out: AUCINF_obs",27300 ng·h/mL
same,MRT inf,"48 mg/m2, plasma, dose 48 mg/m^2, read-out: MRTINF_obs",28.9 h
same,AUC(0-t),[2],28100 ng·h/mL
same,Cmax,[2],4540 ng/mL
same,AUC(0-inf),"60 mg/m2, plasma, dose 60 mg/m^2, read-out: AUCINF_obs",33600 ng·h/mL
same,MRT inf,"60 mg/m2, plasma, dose 60 mg/m^2, read-out: MRTINF_obs",23.7 h
same,CO,"plasma, dose 3 mg/m^2",152.25 ng/mL
same,CO,"plasma, dose 6 mg/m^2",379.69 ng/mL
same,CO,"plasma, dose 12 mg/m^2",2888.66 ng/mL
same,CO,"plasma, dose 24 mg/m^2",2924.46 ng/mL
same,CO,"plasma, dose 48 mg/m^2",1984.52 ng/mL
same,Vss_obs,"plasma, dose 48 mg/m^2",1.46 L/kg
same,CO,"plasma, dose 60 mg/m^2",4797.47 ng/mL
